From the supplement of paper PMC10307832

Key:
Assay in all cases: relative viability (nuclei count vs DMSO), 5 days (fraction); higher = more cells survive
IDH-C35 + Olaparib = compound: Cc1ccccc1C(C(=O)NC1CCCCC1)N(C(=O)Cn1ccnc1C)c1cccc(F)c1 [IDH-C35] + O=C(c1cc(Cc2n[nH]c(=O)c3ccccc23)ccc1F)N1CCN(C(=O)C2CC2)CC1 [Olaparib] (partner 8 µM)
In short: (§1)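 One day after seeding in 1536-well plates, lung cancer cell lines were dosed by pin tool. Dosing was either single-drug or a fixed anchor-drug dose plus five library-drug doses (not always all listed) in √10 steps. After 5 days, nuclei were stained in one fix-and-stain step and counted on 4× images, and relative viability is the nuclei count of treated wells over that of vehicle wells, given as the median of duplicate plates.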

IDH-C35 + Crizotinib = compound: Cc1ccccc1C(C(=O)NC1CCCCC1)N(C(=O)Cn1ccnc1C)c1cccc(F)c1 [IDH-C35] + C[C@@H](Oc1cc(-c2cnn(C3CCNCC3)c2)cnc1N)c1c(Cl)ccc(F)c1Cl [Crizotinib] (partner 1 µM)
In short: as §1

[1] = compound: CC1=C(C(=NN1)C)CC2=C(C3=C(S2)N(C(=O)N(C3=O)C)CC(C)C)C(=O)N4C[C@@H](CO4)O + C[C@]1(O)C[C@@H](c2nc(-c3ccc4ccc(-c5ccccc5)nc4c3)c3c(N)nccn32)C1 [Linsitinib] (partner 1 µM)
In short: as §1

IDH-C35 + Pemetrexed = compound: Cc1ccccc1C(C(=O)NC1CCCCC1)N(C(=O)Cn1ccnc1C)c1cccc(F)c1 [IDH-C35] + Nc1nc2[nH]cc(CCc3ccc(C(=O)N[C@@H](CCC(=O)O)C(=O)O)cc3)c2c(=O)[nH]1 [Pemetrexed] (partner 0.2 µM)
In short: as §1

| Cell Line | relative viability (IDH-C35 + Olaparib; first compound 0.08 µM) | relative viability (IDH-C35 + Olaparib; first compound 0.253 µM) | relative viability (IDH-C35 + Olaparib; first compound 0.8 µM) | relative viability (IDH-C35 + Olaparib; first compound 2.53 µM) | relative viability (IDH-C35 + Olaparib; first compound 8 µM) | relative viability (IDH-C35 + Crizotinib; first compound 0.08 µM) | relative viability (IDH-C35 + Crizotinib; first compound 0.253 µM) | relative viability (IDH-C35 + Crizotinib; first compound 0.8 µM) | relative viability (IDH-C35 + Crizotinib; first compound 2.53 µM) | relative viability (IDH-C35 + Crizotinib; first compound 8 µM) | relative viability ([1]; first compound 0.0025 µM) | relative viability ([1]; first compound 0.007906 µM) | relative viability ([1]; first compound 0.025 µM) | relative viability ([1]; first compound 0.07906 µM) | relative viability ([1]; first compound 0.25 µM) | relative viability (IDH-C35 + Pemetrexed; first compound 0.08 µM) | relative viability (IDH-C35 + Pemetrexed; first compound 0.253 µM) | relative viability (IDH-C35 + Pemetrexed; first compound 0.8 µM) | relative viability (IDH-C35 + Pemetrexed; first compound 2.53 µM) | relative viability (IDH-C35 + Pemetrexed; first compound 8 µM) |
| --- | --- | --- | --- | --- | --- | --- | --- | --- | --- | --- | --- | --- | --- | --- | --- | --- | --- | --- | --- | --- |
| NCI-H2085 | 0.807 | 0.776 | 0.77 | 0.789 | 0.712 | 0.808 | 0.749 | 0.877 | 0.954 | 0.781 | 0.953 | 0.956 | 0.814 | 0.844 | 0.77 | 0.943 | 0.889 | 0.889 | 0.893 | 0.888 |
| NCI-H1734 | 0.585 | 0.628 | 0.61 | 0.634 | 0.588 | 0.69 | 0.729 | 0.623 | 0.638 | 0.729 | 0.925 | 1.05 | 0.861 | 0.947 | 0.881 | 0.432 | 0.423 | 0.443 | 0.413 | 0.409 |
| NCI-H2126 | 0.896 | 0.928 | 0.92 | 0.912 | 0.917 | 0.996 | 1.02 | 1 | 0.981 | 0.992 | 0.712 | 0.789 | 0.673 | 0.72 | 0.67 | 0.68 | 0.703 | 0.696 | 0.597 | 0.668 |
| EMC-BAC-2 | 0.496 | 0.509 | 0.472 | 0.507 | 0.482 | 0.809 | 0.731 | 0.744 | 0.713 | 0.743 | 0.816 | 0.892 | 0.821 | 0.826 | 0.881 | 0.457 | 0.477 | 0.473 | 0.463 | 0.398 |
